Our source for the Ki and EC50 values is ChEMBL document CHEMBL1129591 (J Med Chem, 1996).

In experiment [1] the target is T1, 5-hydroxytryptamine receptor 1A (Homo sapiens, UniProt P08908).
T1 sequence (P08908 whole entry): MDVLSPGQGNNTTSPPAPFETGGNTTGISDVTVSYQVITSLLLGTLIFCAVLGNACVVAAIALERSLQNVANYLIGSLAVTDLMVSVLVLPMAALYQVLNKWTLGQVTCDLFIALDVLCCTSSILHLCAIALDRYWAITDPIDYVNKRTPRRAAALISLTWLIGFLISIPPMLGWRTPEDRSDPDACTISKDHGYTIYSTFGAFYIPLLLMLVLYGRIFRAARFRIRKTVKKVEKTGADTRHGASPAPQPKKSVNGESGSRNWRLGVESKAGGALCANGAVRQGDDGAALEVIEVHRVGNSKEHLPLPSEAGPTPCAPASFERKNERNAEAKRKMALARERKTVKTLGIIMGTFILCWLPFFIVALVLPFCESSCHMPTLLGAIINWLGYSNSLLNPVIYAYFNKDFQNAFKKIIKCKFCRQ
The experiment can be described thus: Ability to inhibit the forskolin-stimulated c-AMP formation mediated by human 5-hydroxytryptamine 1A receptor in CHO-K1 cells. It is filed as functional, cell-based.

Experiment [2] has as its target T2, 5-hydroxytryptamine receptor 1B (Homo sapiens, UniProt P28222). Briefly: Ability to inhibit the forskolin-stimulated c-AMP formation mediated by human 5-hydroxytryptamine 1B receptor in CHO-K1 cells. It is filed as functional, cell-based.
Experiment [3] addresses T2, 5-hydroxytryptamine receptor 1B. The experiment can be described thus: Inhibition of forskolin-stimulated c-AMP formation by human 5-hydroxytryptamine 1B receptor expressed in CHO-K1 cells. Type of experiment: functional, cell-based.
For experiment [4], the target named is 5-hydroxytryptamine receptor 1D (Homo sapiens, UniProt P28221). Briefly: Binding affinity at cloned human 5-hydroxytryptamine 1D receptor.
5-hydroxytryptamine receptor 1D, sequence (P28221 whole entry): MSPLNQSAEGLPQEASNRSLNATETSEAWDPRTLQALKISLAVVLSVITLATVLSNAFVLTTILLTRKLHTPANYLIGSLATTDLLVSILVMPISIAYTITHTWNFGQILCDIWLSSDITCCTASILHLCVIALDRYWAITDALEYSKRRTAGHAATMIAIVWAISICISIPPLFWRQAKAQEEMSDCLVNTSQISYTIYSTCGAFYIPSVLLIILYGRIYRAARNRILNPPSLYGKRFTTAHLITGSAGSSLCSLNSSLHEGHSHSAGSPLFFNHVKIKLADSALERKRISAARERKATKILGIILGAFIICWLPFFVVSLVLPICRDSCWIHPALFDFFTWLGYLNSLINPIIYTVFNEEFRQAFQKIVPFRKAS

T2 sequence (P28222 whole entry): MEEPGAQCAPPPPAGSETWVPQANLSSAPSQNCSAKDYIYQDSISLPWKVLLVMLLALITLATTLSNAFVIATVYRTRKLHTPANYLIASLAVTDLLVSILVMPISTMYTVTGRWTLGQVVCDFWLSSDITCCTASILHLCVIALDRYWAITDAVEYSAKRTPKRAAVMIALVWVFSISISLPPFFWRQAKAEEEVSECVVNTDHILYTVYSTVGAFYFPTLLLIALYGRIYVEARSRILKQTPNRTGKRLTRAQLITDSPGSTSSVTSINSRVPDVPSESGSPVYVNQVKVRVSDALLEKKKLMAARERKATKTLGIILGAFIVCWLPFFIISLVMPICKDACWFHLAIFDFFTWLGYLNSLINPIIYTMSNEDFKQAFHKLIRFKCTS

Broadly, the Ki is a measure of affinity in units of concentration, obtained from inhibition or displacement. High values mean lower affinity, low ones higher affinity. In general, EC50 refers to the concentration at which the effect is half-maximal. A low value points to greater potency. For the molecule `NCCc1c[nH]c2ccc(OCc3ccc(COc4ccc5[nH]cc(CCN)c5c4)cc3)cc12`, the Ki in experiment [1] worked out at 1600 pM; in experiment [2], 100 pM; in experiment [4], 110 pM. Further, in experiment [3], a half-maximal response (EC50) required 3000 pM.
For `NCCc1c[nH]c2ccc(OCCN3CCN(CCOc4ccc5[nH]cc(CCN)c5c4)CC3)cc12` the same measures were 9500 pM, 260 pM, 350 pM and 190 pM.
For `NCCc1c[nH]c2ccc(OCC(=O)NCCCNC(=O)COc3ccc4[nH]cc(CCN)c4c3)cc12` the same measures were 8600 pM, 300 pM, 300 pM and 90 pM.
For `NCCc1c[nH]c2ccc(OCC(=O)N3CCN(C(=O)COc4ccc5[nH]cc(CCN)c5c4)CC3)cc12`, the inhibition constant (Ki) in experiment [1] came to 20000 pM; in experiment [2] it was 360 pM; in experiment [4], 420 pM. For the same molecule, in experiment [3], the midpoint of the response, the EC50, lay at 280 pM.
In the case of `NCCc1c[nH]c2ccc(OCC(=O)N3CCNCC3)cc12`, the Ki in experiment [1], in experiment [2] and in experiment [4] was greater than 100000 pM throughout.
On to `NCCc1c[nH]c2ccc(OCCNC(=O)NCCOc3ccc4[nH]cc(CCN)c4c3)cc12`, for which the inhibition constant (Ki) in experiment [1] was determined as 2200 pM; in experiment [2], 200 pM; in experiment [4], 400 pM. In experiment [3], this molecule came in with a concentration for a half-maximal effect (EC50) of 1600 pM.
`NCCc1c[nH]c2ccc(OCCN3CCN(C(=O)COc4ccc5[nH]cc(CCN)c5c4)CC3)cc12`: the results for the inhibitory constant (Ki) in experiment [1], in experiment [2] and in experiment [4] were 9500 pM, 110 pM and 160 pM, respectively. In experiment [3], this molecule came in with an EC50 of 220 pM.
The matching figures for `NCCc1c[nH]c2ccc(OCCNC(=O)COc3ccc4[nH]cc(CCN)c4c3)cc12`: 2200 pM, 160 pM, 180 pM and 440 pM.
For `NCCc1c[nH]c2ccc(OCc3cccc(COc4ccc5[nH]cc(CCN)c5c4)c3)cc12` the same measures were 1000 pM, 320 pM, 350 pM and 850 pM.
With `NCCc1c[nH]c2ccc(OCc3ccccc3COc3ccc4[nH]cc(CCN)c4c3)cc12`, the Ki in experiment [1] turned out to be 4300 pM; in experiment [2] it was 1700 pM; in experiment [4], 1500 pM. In experiment [3], this molecule showed an EC50 of 2070 pM.
The matching figures for `NCCc1c[nH]c2ccc(OCCCCCCNS(=O)(=O)c3ccc(-c4ccc(S(=O)(=O)NCCCCCCOc5ccc6[nH]cc(CCN)c6c5)cc4)cc3)cc12`: 1660 pM, 380 pM, 450 pM and 100 pM.
As to `NCCc1c[nH]c2ccc(OCCOc3ccc4[nH]cc(CCN)c4c3)cc12`, the inhibition constant (Ki) in experiment [1] was 14300 pM; in experiment [2] it was 2500 pM; in experiment [4], 1000 pM. In experiment [3], this molecule showed a concentration for a half-maximal effect (EC50) of 4000 pM.
For the molecule `NCCc1c[nH]c2ccc(OCC(=O)Nc3ccc(NC(=O)COc4ccc5[nH]cc(CCN)c5c4)cc3)cc12`, the Ki was found to be 4060 pM in experiment [1], 270 pM in experiment [2] and 110 pM in experiment [4]. Further, a half-maximal effect in experiment [3] (EC50) was put at 300 pM.
The matching figures for `NCCc1c[nH]c2ccc(OCC(=O)Nc3ccc(N4CCN(C(=O)COc5ccc6[nH]cc(CCN)c6c5)CC4)cc3)cc12`: 9800 pM, 140 pM, 90 pM and 400 pM.
For `NCCc1c[nH]c2ccc(OCC(=O)N3CCC(C4CCN(C(=O)COc5ccc6[nH]cc(CCN)c6c5)CC4)CC3)cc12` the same measures were 4000 pM, 220 pM, 270 pM and 260 pM.
Regarding `NCCc1c[nH]c2ccc(OCCCCCCOc3ccc4[nH]cc(CCN)c4c3)cc12`, the figures for the Ki in experiment [1], in experiment [2] and in experiment [4] were 1800 pM, 500 pM and 460 pM, respectively. Also, the response in experiment [3] was half-maximal at 600 pM (EC50).
